Assay results reported in paper PMC12777753 (Emerging Microbes & Infections, 2025).
Values after ≈ are worked out from the molar mass of the structure shown. Structures can show the parent of a compound that is named as a salt. Where two headings read alike, the source gives them in different places. Marks after values point to notes of the source that are not given here.

Experiments:
NA of A/Iowa/24/2024 = NA of A/Iowa/24/2024 (Influenza A virus, UniProt Q9Q0U7); type: biochemical, influenza A(H5N1) virus; conditions: read-out: NA inhibitor IC50 ± SD
[1] = target: NA of A/California/173/2024 (Influenza A virus, UniProt Q9Q0U7); type: biochemical, influenza A(H5N1) virus; conditions: read-out: NA inhibitor IC50 ± SD
[2] = target: NA of A/California/155/2024 (Influenza A virus, UniProt Q9Q0U7); type: biochemical, influenza A(H5N1) virus; conditions: read-out: NA inhibitor IC50 ± SD
NA of A/Nevada/10/2025 = NA of A/Nevada/10/2025 (Influenza A virus, UniProt Q9Q0U7); type: biochemical, influenza A(H5N1) virus; conditions: read-out: NA inhibitor IC50 ± SD
NA of A/Wyoming/01/2025 = NA of A/Wyoming/01/2025 (Influenza A virus, UniProt Q9Q0U7); type: biochemical, influenza A(H5N1) virus; conditions: read-out: NA inhibitor IC50 ± SD
[3] = target: NA of A/Illinois/45/2019 (H1N1)pdm09 (Influenza A virus, UniProt A0A0X9QTS2); type: biochemical; conditions: read-out: NA inhibitor IC50 ± SD
[4] = target: NA of A/Illinois/08/2018 (H1N1)pdm09 (Influenza A virus, UniProt A0A0X9QTS2); type: biochemical; conditions: read-out: NA inhibitor IC50 ± SD
[5] = target: recNA A/California/148/2024 (genotype B3.13) WT (Influenza A virus, UniProt Q9Q0U7); type: biochemical, influenza A(H5N1) virus
[6] = target: NA of A/California/153/2024 (Influenza A virus, UniProt Q9Q0U7); type: biochemical, influenza A(H5N1) virus; conditions: read-out: NA inhibitor IC50 ± SD
[7] = target: NA of A/California/148/2024 (Influenza A virus, UniProt Q9Q0U7); type: biochemical, influenza A(H5N1) virus; conditions: read-out: NA inhibitor IC50 ± SD
[8] = target: NA of Genotype D1.1 viruses (n = 7) (Influenza A virus, UniProt Q9Q0U7); type: biochemical, influenza A(H5N1) virus; conditions: read-out: NA inhibitor IC50, median
[9] = target: NA of Genotype B3.13 viruses (n = 10) (Influenza A virus, UniProt Q9Q0U7); type: biochemical, influenza A(H5N1) virus; conditions: read-out: NA inhibitor IC50, median
[10] = target: NA of A/California/147/2024 (Influenza A virus, UniProt Q9Q0U7); type: biochemical, influenza A(H5N1) virus; conditions: read-out: NA inhibitor IC50 ± SD
[11] = target: NA of A/California/151/2024 (Influenza A virus, UniProt Q9Q0U7); type: biochemical, influenza A(H5N1) virus; conditions: read-out: NA inhibitor IC50 ± SD
[12] = target: NA of A/bald eagle/FL/2022 (H5N1) (Influenza A virus, UniProt Q9Q0U7); type: biochemical; conditions: read-out: NA inhibitor IC50 ± SD
[13] = target: NA of A/Louisiana/50/2017 (H3N2) (Influenza A virus, UniProt A0A193ACB1); type: biochemical; conditions: read-out: NA inhibitor IC50 ± SD
[14] = target: NA of A/California/152/2024 (Influenza A virus, UniProt Q9Q0U7); type: biochemical, influenza A(H5N1) virus; conditions: read-out: NA inhibitor IC50 ± SD
[15] = target: recNA A/Washington/239/2024 (genotype D1.1) WT (Influenza A virus, UniProt Q8QPK2); type: biochemical, influenza A(H5N1) virus
[16] = system: A/California/147/2024 (CA/147, wildtype); set-up: species or system BALB/c mice; conditions: mouse, in vivo; for Survival (%): po
[17] = system: A/bald eagle/FL/2022 (H5N1); assay: microbe, parasite or virus in culture; type: cell-based, influenza A(H5N1) virus; conditions: Influenza A virus
[18] = system: A/Wisconsin/53/2009 (H1N1)pdm09; assay: microbe, parasite or virus in culture; type: cell-based, influenza A(H1N1)pdm09 virus; conditions: Influenza A virus, H1N1, read-out: EC50 ± SD
[19] = system: clade 2.3.4.4b HPAI A(H5N1) viruses (B3.13 and D1.1); assay: microbe, parasite or virus in culture; type: cell-based; conditions: for EC50: Influenza A virus, H5N1, read-out: 50% effective concentrations (EC50s), range over viruses
A/California/148/2024 = assay: microbe, parasite or virus in culture; type: cell-based, influenza A(H5N1) virus; conditions: Influenza A virus, read-out: PA inhibitor EC50 ± SD
A/California/155/2024 = assay: microbe, parasite or virus in culture; type: cell-based, influenza A(H5N1) virus; conditions: Influenza A virus, read-out: PA inhibitor EC50 ± SD
[20] = system: Genotype B3.13 viruses (n = 10); assay: microbe, parasite or virus in culture; type: cell-based, influenza A(H5N1) virus; conditions: Influenza A virus, read-out: PA inhibitor EC50, median
A/California/151/2024 = assay: microbe, parasite or virus in culture; type: cell-based, influenza A(H5N1) virus; conditions: Influenza A virus, read-out: PA inhibitor EC50 ± SD
A/California/153/2024 = assay: microbe, parasite or virus in culture; type: cell-based, influenza A(H5N1) virus; conditions: Influenza A virus, read-out: PA inhibitor EC50 ± SD
A/California/147/2024 = assay: microbe, parasite or virus in culture; type: cell-based, influenza A(H5N1) virus; conditions: Influenza A virus, read-out: PA inhibitor EC50 ± SD
A/California/152/2024 = assay: microbe, parasite or virus in culture; type: cell-based, influenza A(H5N1) virus; conditions: Influenza A virus, read-out: PA inhibitor EC50 ± SD
A/Nevada/10/2025 = assay: microbe, parasite or virus in culture; type: cell-based, influenza A(H5N1) virus; conditions: Influenza A virus, read-out: PA inhibitor EC50 ± SD
[21] = system: A/Illinois/08/2018 (H1N1)pdm09; assay: microbe, parasite or virus in culture; type: cell-based, influenza A(H1N1)pdm09 virus; conditions: Influenza A virus, H1N1, read-out: PA inhibitor EC50 ± SD
[22] = system: Genotype D1.1 viruses (n = 7); assay: microbe, parasite or virus in culture; type: cell-based, influenza A(H5N1) virus; conditions: Influenza A virus, read-out: PA inhibitor EC50, median
[23] = system: A/Louisiana/50/2017 (H3N2); assay: microbe, parasite or virus in culture; type: cell-based; conditions: Influenza A virus, H3N2, read-out: PA inhibitor EC50 ± SD

`CC(=O)N[C@H]1[C@H]([C@H](O)[C@H](O)CO)OC(C(=O)O)=C[C@@H]1N=C(N)N` [Zanamivir, zanamivir] was tested, and the IC50 (NA of A/Iowa/24/2024) was 0.34 nM, the IC50 [1] was 0.23 nM and the IC50 [2] was 0.16 nM. For the same molecule, the IC50 (NA of A/Nevada/10/2025) was 0.36 nM and the IC50 (NA of A/Wyoming/01/2025) was 0.46 nM.

For oseltamivir carboxylate, the IC50 [3] was 0.28 ± 0.04 nM and the IC50 [4] was 0.34 ± 0.03 nM.

Work on peramivir yielded an IC50 [5] of 0.08 nM, an IC50 (NA of A/Iowa/24/2024) of 0.07 nM and an IC50 [6] of 0.06 nM. It also gave an IC50 [7] of 0.07 nM, an IC50 [8] of 0.07 nM and an IC50 [9] of 0.07 nM. It also gave an IC50 [10] of 0.07 nM, an IC50 [1] of 0.06 nM and an IC50 [2] of 0.08 nM. It also gave an IC50 [11] of 0.07 nM, an IC50 [12] of 0.08 ± 0.02 nM and an IC50 [13] of 0.07 ± 0.01 nM. For the same molecule, the IC50 [14] was 0.08 nM, the IC50 (NA of A/Nevada/10/2025) was 0.07 nM and the IC50 [3] was 0.04 ± 0.01 nM. For the same molecule, the IC50 (NA of A/Wyoming/01/2025) was 0.07 nM, the IC50 [4] was 0.04 ± 0.01 nM and the IC50 [15] was 0.06 nM.

`COC(=O)OCOc1c2n(ccc1=O)N([C@@H]1c3ccccc3SCc3c1ccc(F)c3F)[C@@H]1COCCN1C2=O` [Baloxavir marboxil, baloxavir marboxil] was tested, and the “Mean TTD (day)” value ([16]; 5 mg/kg) was 11^c day, the “Wt. Loss (%), mean maximum weight loss” value ([16]; 5 mg/kg) was 5% and the “Wt. Loss (%), mean maximum weight loss” value ([16]; 15 mg/kg) was 6%. For the same molecule, the “Wt. Loss (%), mean maximum weight loss” value ([16]; 45 mg/kg) was 4%, the “Survival (%)” value ([16]; 5 mg/kg) was 7/8 (87.5) % and the “Survival (%)” value ([16]; 15 mg/kg) was 8/8 (100) %. The “Survival (%)” value ([16]; 45 mg/kg) was 8/8 (100) %.

`NC12CC3CC(CC(C3)C1)C2` [Amantadine, amantadine hydrochloride] showed an EC50 ([17]; H5N1, read-out: EC50 ± SD) of 0.0205 ± 0.00496 µg/mL, an EC50 [18] of 0.0259 ± 0.00151 µg/mL and an EC50 [19] of 9.25 to 21.5 ng/mL.

`O=C1c2c(O)c(=O)ccn2N([C@@H]2c3ccccc3SCc3c2ccc(F)c3F)[C@@H]2COCCN12` [Baloxavir, baloxavir acid] gave an EC50 (A/California/148/2024) of 0.26 nM, an EC50 (A/California/155/2024) of 0.41 nM and an EC50 ([17]; H5N1, read-out: PA inhibitor EC50 ± SD) of 0.39 ± 0.16 nM. For the same molecule, the EC50 [20] was 0.5 nM, the EC50 (A/California/151/2024) was 0.72 nM and the EC50 (A/California/153/2024) was 0.59 nM. The EC50 (A/California/147/2024) was 0.4 nM, the EC50 (A/California/152/2024) was 0.45 nM and the EC50 (A/Nevada/10/2025) was 0.34 nM. It also gave an EC50 [21] of 0.96 ± 0.37 nM, an EC50 [22] of 0.34 nM and an EC50 [23] of 0.8 ± 0.28 nM. The “infectious virus in any organs of treated mice” value [16] was “not detected”, the “loss of initial weight” value ([16]; 5 mg/kg) was no more than 6% and the “Survival (%)” value ([16]; 5 mg/kg) was 87.5%. The “EC50s, in words” value [19] was “sub-nanomolar”.

With `CC(N)C12CC3CC(CC(C3)C1)C2` (stereo not drawn) [Rimantadine, rimantadine] the EC50 ([17]; H5N1, read-out: EC50 ± SD) was 0.00574 ± 0.00131 µg/mL, the EC50 [18] was 0.00608 ± 0.0009 µg/mL (≈ 0.0339 µM) and the EC50 [19] was 3.14 to 6.48 ng/mL (≈ 0.0175 to 0.0361 µM).
